In US6455540B1, “Methods of use of quinolone compounds against anaerobic pathogenic bacteria” (priority 1999, dated 2002):
≈ marks a conversion by molar mass, not a printed value.

Tests used:
Assay in all cases: Agar dilution MIC
[1] = system: Actinomyces odontolyticus; type: cell-based; settings: Schaalia odontolytica, 10 isolates
Actinomyces israelii = type: cell-based; settings: 6 isolates
[2] = system: Anaerobiospirillum thomasii; type: cell-based; settings: 13 isolates
[3] = system: Anaerobiospirillum succiniciproducens; type: cell-based; settings: 3 isolates
Bacteroides gracilis = type: cell-based, Bacteroides gracilis (Campylobacter gracilis); settings: Campylobacter gracilis, 11 isolates
Bacteroides tectum = type: cell-based; settings: Bacteroides pyogenes, 22 isolates
Bacteroides ureolyticus = type: cell-based; settings: 17 isolates
[4] = system: Clostridium clostridioforme; type: cell-based; settings: 11 isolates
Clostridium dfficile = type: cell-based, Clostridium difficile; settings: 14 isolates
Clostridium inocuum = type: cell-based, Clostridium innocuum; settings: 11 isolates
Clostridium ramosum = type: cell-based; settings: 10 isolates
[5] = system: Fusobacterium spp group 1; type: cell-based; settings: Fusobacterium, 19 isolates
[6] = system: Fusobacterium spp. group 2; type: cell-based, Fusobacterium mortiferum, necrogenes, ulcerans; settings: Fusobacterium, 12 isolates
Fusobacterium russii = type: cell-based; settings: Fusobacterium russii; read-out: Minimal Inhibitory Concentration 90% (MIC90)
Fusobacterium varium = type: cell-based; settings: Fusobacterium varium, 17 isolates
[7] = system: Peptostreptococcus asaccharolyticus; type: cell-based; settings: Peptoniphilus asaccharolyticus, 11 isolates
[8] = system: Peptostreptococcus magnus; type: cell-based; settings: 13 isolates
[9] = system: Peptostreptococcus micros; type: cell-based; settings: 12 isolates
[10] = system: Peptostreptococcus prevotii; type: cell-based; settings: Anaerococcus prevotii, read-out: Minimal Inhibitory Concentration 50% (MIC50); 9 isolates
[11] = system: Porphyromonas asaccharolyticus; type: cell-based, Porphyromonas asaccharolytica; settings: Porphyromonas, 11 isolates
Porphyromonas canoris = type: cell-based; settings: Porphyromonas canoris, 10 isolates
Porphyromonas gingivalis = type: cell-based; settings: Porphyromonas gingivalis, 13 isolates
Porphyromonas macaccae = type: cell-based; settings: Porphyromonas, read-out: Minimal Inhibitory Concentration 50% (MIC50); 13 isolates
Porphyromonas spp. = type: cell-based, Porphyromonas cangingivalis, cansulci, circumdentaria, levii; settings: Porphyromonas, read-out: Minimal Inhibitory Concentration 50% (MIC50); 11 isolates
Prevotella bivia = type: cell-based; settings: 21 isolates
[12] = system: Prevotella buccae-oris group; type: cell-based; settings: 22 isolates
[13] = system: Prevotella heparinolytica; type: cell-based; settings: 16 isolates
Prevotella intermedia = type: cell-based; settings: 11 isolates
[14] = system: Prevotella melaninogenica; type: cell-based; settings: Prevotella melaninogenica, 12 isolates
[15] = system: Prevotella denticola/loeschii group; type: cell-based; settings: 6 isolates
Veillonella spp. = type: cell-based; settings: 24 isolates
[16] = read-out: Minimal Inhibitory Concentration 90% (MIC90)
[17] = read-out: Minimal Inhibitory Concentration 50% (MIC50)
[18] = Clostridium, read-out: Minimal Inhibitory Concentration 90% (MIC90)

`Cc1ncc([N+](=O)[O-])n1CCO` [Metronidazole] was tested, and the MIC90 [1, 16] was 32 µg/mL (≈ 187 µM), the MIC50 [1, 17] was 16 µg/mL (≈ 93.5 µM) and the “Minimal Inhibitory Concentration Range” value (Actinomyces israelii) was 1 to 32 µg/mL. The MIC50 (Actinomyces israelii; Actinomyces israelii, read-out: Minimal Inhibitory Concentration 50% (MIC50)) was 4 µg/mL (≈ 23.4 µM), the “Minimal Inhibitory Concentration Range” value [2] was 1 to 4 µg/mL and the MIC50 ([2]; Anaerobiospirillum thomasii, read-out: Minimal Inhibitory Concentration 50% (MIC50)) was 2 µg/mL (≈ 11.7 µM). The MIC90 ([2]; Anaerobiospirillum thomasii, read-out: Minimal Inhibitory Concentration 90% (MIC90)) was 4 µg/mL (≈ 23.4 µM), the “Minimal Inhibitory Concentration Range” value [3] was 4 to 8 µg/mL and the MIC50 ([3]; Anaerobiospirillum succiniciproducens, read-out: Minimal Inhibitory Concentration 50% (MIC50)) was 8 µg/mL (≈ 46.7 µM). The MIC90 (Bacteroides gracilis; [16]) was over 32 µg/mL, the MIC50 (Bacteroides gracilis; [17]) was 0.5 µg/mL (≈ 2.92 µM) and the MIC90 (Bacteroides tectum; [16]) was 0.5 µg/mL (≈ 2.92 µM). For the same compound, the MIC50 (Bacteroides tectum; [17]) was 0.5 µg/mL (≈ 2.92 µM), the “Minimal Inhibitory Concentration Range” value (Bacteroides ureolyticus) was 0.06 to 2 µg/mL and the MIC90 (Bacteroides ureolyticus; Campylobacter ureolyticus, read-out: Minimal Inhibitory Concentration 90% (MIC90)) was 1 µg/mL (≈ 5.84 µM). The MIC50 (Bacteroides ureolyticus; Campylobacter ureolyticus, read-out: Minimal Inhibitory Concentration 50% (MIC50)) was 0.25 µg/mL (≈ 1.46 µM), the “Minimal Inhibitory Concentration Range” value [4] was 0.03 to 1 µg/mL and the MIC90 [4, 18] was 0.5 µg/mL (≈ 2.92 µM). For the same compound, the “Minimal Inhibitory Concentration Range” value (Clostridium dfficile) was 0.25 to 1 µg/mL, the “Minimal Inhibitory Concentration Range” value (Clostridium inocuum) was 0.5 to 2 µg/mL and the MIC90 (Clostridium inocuum; [18]) was 1 µg/mL (≈ 5.84 µM). The MIC50 (Clostridium inocuum; Clostridium, read-out: Minimal Inhibitory Concentration 50% (MIC50)) was 0.5 µg/mL (≈ 2.92 µM), the “Minimal Inhibitory Concentration Range” value (Clostridium ramosum) was 1 µg/mL and the MIC50 (Clostridium ramosum; Thomasclavelia ramosa, read-out: Minimal Inhibitory Concentration 50% (MIC50)) was 1 µg/mL (≈ 5.84 µM). It also gave an MIC90 (Clostridium ramosum; Thomasclavelia ramosa, read-out: Minimal Inhibitory Concentration 90% (MIC90)) of 1 µg/mL (≈ 5.84 µM), an MIC50 ([5]; GROUP1, read-out: Minimal Inhibitory Concentration 50% (MIC50)) of 0.25 µg/mL (≈ 1.46 µM) and an MIC90 ([5]; GROUP1, read-out: Minimal Inhibitory Concentration 90% (MIC90)) of 4 µg/mL (≈ 23.4 µM). It also gave an MIC50 [6, 17] of 0.5 µg/mL (≈ 2.92 µM), an MIC90 [6, 16] of 1 µg/mL (≈ 5.84 µM) and an MIC90 (Fusobacterium russii) of 0.25 µg/mL (≈ 1.46 µM). For the same compound, the MIC50 (Fusobacterium varium; [17]) was 1 µg/mL (≈ 5.84 µM), the MIC90 (Fusobacterium varium; [16]) was 2 µg/mL (≈ 11.7 µM) and the MIC50 [7, 17] was 0.5 µg/mL (≈ 2.92 µM). The MIC90 [7, 16] was 1 µg/mL (≈ 5.84 µM), the “Minimal Inhibitory Concentration Range” value [8] was 0.25 to 2 µg/mL and the MIC50 ([8]; Finegoldia magna, read-out: Minimal Inhibitory Concentration 50% (MIC50)) was 0.5 µg/mL (≈ 2.92 µM). For the same compound, the MIC90 ([8]; Finegoldia magna, read-out: Minimal Inhibitory Concentration 90% (MIC90)) was 0.5 µg/mL (≈ 2.92 µM), the “Minimal Inhibitory Concentration Range” value [9] was 0.03 to 0.25 µg/mL and the MIC50 ([9]; Parvimonas micra, read-out: Minimal Inhibitory Concentration 50% (MIC50)) was 0.25 µg/mL (≈ 1.46 µM). It also gave an MIC90 ([9]; Parvimonas micra, read-out: Minimal Inhibitory Concentration 90% (MIC90)) of 0.25 µg/mL (≈ 1.46 µM), an MIC50 [10] of 0.5 µg/mL (≈ 2.92 µM) and an MIC50 [11, 17] of at most 0.015 µg/mL. It also gave an MIC90 [11, 16] of at most 0.015 µg/mL, an MIC50 (Porphyromonas canoris; [17]) of 0.25 µg/mL (≈ 1.46 µM) and an MIC90 (Porphyromonas canoris; [16]) of 0.25 µg/mL (≈ 1.46 µM). For the same compound, the MIC50 (Porphyromonas gingivalis; [17]) was at most 0.015 µg/mL, the MIC90 (Porphyromonas gingivalis; [16]) was 0.03 µg/mL (≈ 0.175 µM) and the MIC50 (Porphyromonas macaccae) was 0.06 µg/mL (≈ 0.351 µM). The MIC50 (Porphyromonas spp.) was 0.03 µg/mL (≈ 0.175 µM), the “Minimal Inhibitory Concentration Range” value (Prevotella bivia) was 0.5 to 4 µg/mL and the MIC90 (Prevotella bivia; Prevotella bivia, read-out: Minimal Inhibitory Concentration 90% (MIC90)) was 4 µg/mL (≈ 23.4 µM). The MIC50 (Prevotella bivia; Prevotella bivia, read-out: Minimal Inhibitory Concentration 50% (MIC50)) was 2 µg/mL (≈ 11.7 µM), the “Minimal Inhibitory Concentration Range” value [12] was 0.5 to 4 µg/mL and the MIC90 ([12]; Prevotella, read-out: Minimal Inhibitory Concentration 90% (MIC90)) was 2 µg/mL (≈ 11.7 µM). For the same compound, the MIC50 ([12]; Prevotella, read-out: Minimal Inhibitory Concentration 50% (MIC50)) was 1 µg/mL (≈ 5.84 µM), the “Minimal Inhibitory Concentration Range” value [13] was 0.06 to 1 µg/mL and the MIC90 ([13]; Prevotella heparinolytica, read-out: Minimal Inhibitory Concentration 90% (MIC90)) was 1 µg/mL (≈ 5.84 µM). For the same compound, the MIC50 ([13]; Prevotella heparinolytica, read-out: Minimal Inhibitory Concentration 50% (MIC50)) was 0.5 µg/mL (≈ 2.92 µM), the “Minimal Inhibitory Concentration Range” value (Prevotella intermedia) was 0.03 to 1 µg/mL and the MIC90 (Prevotella intermedia; Prevotella intermedia, read-out: Minimal Inhibitory Concentration 90% (MIC90)) was 1 µg/mL (≈ 5.84 µM). The MIC50 (Prevotella intermedia; Prevotella intermedia, read-out: Minimal Inhibitory Concentration 50% (MIC50)) was 0.5 µg/mL (≈ 2.92 µM), the MIC90 [14, 16] was 1 µg/mL (≈ 5.84 µM) and the MIC50 [14, 17] was 0.5 µg/mL (≈ 2.92 µM). For the same compound, the “Minimal Inhibitory Concentration Range” value [15] was 0.5 to 1 µg/mL, the MIC50 ([15]; Prevotella denticola, read-out: Minimal Inhibitory Concentration 50% (MIC50)) was 1 µg/mL (≈ 5.84 µM) and the “Minimal Inhibitory Concentration Range” value (Veillonella spp.) was 0.25 to 2 µg/mL. The MIC90 (Veillonella spp.; Veillonella, read-out: Minimal Inhibitory Concentration 90% (MIC90)) was 2 µg/mL (≈ 11.7 µM) and the MIC50 (Veillonella spp.; Veillonella, read-out: Minimal Inhibitory Concentration 50% (MIC50)) was 1 µg/mL (≈ 5.84 µM).
